# Reference: patent publication US8518891B2 (priority 2006, dated 2013)
# Several values for one entry are separate records, joined by “and”; a condition that tells them apart may be missing. Equal values may be shown once. Read-outs that look alike come from different tables or passages of the source. Numbered stars: 1 amine (or outer) side, 2 acyl side, 3 side chain; on linkers, the order of the positions; unused ones are H or OH. Square brackets hold non-standard residues; d marks the D form. Peptide text beside a SMILES is read from it. * marks the point of attachment. X5 = NP(=O)(OCc1c(F)c(F)c(N*)c(F)c1F)N(CCCl)CCCl; X4 = NP(=O)(OCc1c(F)cc(N*)cc1F)N(CCCl)CCCl; X2 = NP(=O)(OCc1ccc(N*)c(F)c1)N(CCCl)CCCl; X1 = NP(=O)(OCc1ccc(N*)cc1F)N(CCCl)CCCl; X3 = NP(=O)(OCc1ccc(N*)cc1)N(CCCl)CCCl; Glutaryl = O=C(CCCC(=O)[*:2])[*:1]; Hyp = O=C(O)[C@@H]1C[C@@H](O)CN1; Chg = N[C@H](C(=O)O)C1CCCCC1
# Tests used:
# [1] = system: LNCaP human prostate cancer cell line; assay: In vitro antiproliferative activity assay in PSA-producing LNCaP cells; type: cell-based; conditions: 72 h drug exposure
# From the text: (§1) Furthermore, analogs 5b and 5c were synthesized with an electron-withdrawing fluorine atom at C2 (5b) and C3 (5c), respectively.
# [2] = system: DU145 human prostate cancer cell line; assay: In vitro antiproliferative activity assay in non-PSA-producing DU145 cells; type: cell-based; conditions: 72 h drug exposure
# From the text: as §1
# [3] = molecular target: PSA (Homo sapiens, UniProt P07288); assay: PSA cleavage of peptide-linker-drug conjugates, disappearance monitored by HPLC; type: biochemical; conditions: for half-life: PSA, in the presence of PSA; for Stability Ratio between T1/2 in the absence and presence of PSA: T1/2 (-PSA) / T1/2 (+PSA)
# Description: (§2) First, the stability and PSA cleavage of glutaryl-Hyp-Ala-Ser-Chg-Gln-aminobenzyl phosphoramide mustard without substitutions on the benzyl ring (5a) was tested by monitoring the disappearance of the peptide-linker-drug conjugate using HPLC. […] Thus, peptide-linker-drug conjugate 5a is a substrate of PSA. The hydrolysis in the presence of PSA was 40 times faster than that in the absence of PSA. But, the instability in the absence of PSA was a concern. This instability can be addressed by introducing an electron-withdrawing fluorine atom on the aromatic ring as shown in Table 1. […] In the presence of PSA, they were more quickly hydrolyzed with t½of 43 and 57 min, respectively.
# [4] = Stability of peptide-linker-drug conjugates in the absence of PSA, disappearance monitored by HPLC; type: physicochemical; conditions: for half-life: 0.1 M phosphate buffer, pH 7.4, 37° C., read-out: T1/2 -PSA (stability) (converted); for Stability relative to 5a in the absence of PSA: in words
# Description: as §2
# [5] = read-out: T1/2 +PSA (PSA-catalyzed cleavage) (converted)
# [6] = read-out: t½ in the presence of PSA
# Sequence of PSA (P07288 25-261): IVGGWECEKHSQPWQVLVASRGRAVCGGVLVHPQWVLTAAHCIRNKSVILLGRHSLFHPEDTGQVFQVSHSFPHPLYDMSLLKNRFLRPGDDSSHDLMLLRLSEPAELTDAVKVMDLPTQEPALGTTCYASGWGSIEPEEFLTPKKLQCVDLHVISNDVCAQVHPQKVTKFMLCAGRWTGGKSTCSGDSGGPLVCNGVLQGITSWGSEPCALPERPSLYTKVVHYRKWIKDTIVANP
SMILES,IC50 [1] [µM],IC50 [2],"half-life [3, 5] [h]",Stability Ratio between T1/2 in the absence and presence of PSA [3],half-life [4] [h],"half-life [3, 6] [h]",Stability relative to 5a in the absence of PSA [4]
"C[C@H](NC(=O)[C@@H]1C[C@@H](O)CN1C(=O)CCCC(=O)O)C(=O)N[C@@H](CO)C(=O)N[C@H](C(=O)N[C@@H](CCC(N)=O)C(=O)Nc1ccc(COP(N)(=O)N(CCCl)CCCl)cc1)C1CCCCC1 (stereo partly drawn) [5a, glutaryl-Hyp-Ala-Ser-Chg-Gln-NH-benzyl phosphoramide mustard] (Glutaryl-[Hyp]AS[Chg]Q-X3)",11,~35 µM and 35 µM,1.2,40,48,,
"C[C@H](NC(=O)[C@@H]1C[C@@H](O)CN1C(=O)CCCC(=O)O)C(=O)N[C@@H](CO)C(=O)N[C@H](C(=O)N[C@@H](CCC(N)=O)C(=O)Nc1ccc(COP(N)(=O)N(CCCl)CCCl)c(F)c1)C1CCCCC1 (stereo partly drawn) [5b, glutaryl-Hyp-Ala-Ser-Chg-Gln-NH-2-fluorobenzyl phosphoramide mustard] (Glutaryl-[Hyp]AS[Chg]Q-X1)",5.3,> 100 µM,0.93,113,105,0.717,much more stable than 5a
"C[C@H](NC(=O)[C@@H]1C[C@@H](O)CN1C(=O)CCCC(=O)O)C(=O)N[C@@H](CO)C(=O)N[C@H](C(=O)N[C@@H](CCC(N)=O)C(=O)Nc1ccc(COP(N)(=O)N(CCCl)CCCl)cc1F)C1CCCCC1 (stereo partly drawn) [5c, glutaryl-Hyp-Ala-Ser-Chg-Gln-NH-3-fluorobenzyl phosphoramide mustard] (Glutaryl-[Hyp]AS[Chg]Q-X2)",29,> 100 µM,0.65,711,462,0.95,much more stable than 5a
"C[C@H](NC(=O)[C@@H]1C[C@@H](O)CN1C(=O)CCCC(=O)O)C(=O)N[C@@H](CO)C(=O)N[C@H](C(=O)N[C@@H](CCC(N)=O)C(=O)Nc1cc(F)c(COP(N)(=O)N(CCCl)CCCl)c(F)c1)C1CCCCC1 (stereo partly drawn) [5d, glutaryl-Hyp-Ala-Ser-Chg-Gln-NH-2,6-difluorobenzyl phosphoramide mustard] (Glutaryl-[Hyp]AS[Chg]Q-X4)",20,> 100 µM,1.75,75,131,,
"C[C@H](NC(=O)[C@@H]1C[C@@H](O)CN1C(=O)CCCC(=O)O)C(=O)N[C@@H](CO)C(=O)N[C@H](C(=O)N[C@@H](CCC(N)=O)C(=O)Nc1c(F)c(F)c(COP(N)(=O)N(CCCl)CCCl)c(F)c1F)C1CCCCC1 (stereo partly drawn) [5e, glutaryl-Hyp-Ala-Ser-Chg-Gln-NH-2,3,5,6-tetrafluorobenzyl phosphoramide mustard] (Glutaryl-[Hyp]AS[Chg]Q-X5)",> 100,> 100 µM,1.1,162,178,,
